In assay [1] the test system is MCF7. Briefly: Antiproliferative activity against human MCF7 cells after 48 hrs by MTT assay. The assay is classed as functional, cell-based. The note with it: MCF7, 48 h. (In general: Tetrazolium dyes change colour on reduction, which living cells bring about.)
A further assay has as its system A549. Briefly: Antiproliferative activity against human A549 cells after 48 hrs by MTT assay. Format: functional, cell-based. The conditions noted are these: A549, 48 h.
In the next assay the test system is LoVo. Briefly: Antiproliferative activity against human LoVo cells after 48 hrs by MTT assay. The assay is classed as functional, cell-based.
Assay [2] can be described thus: Antiproliferative activity against human IOSE-144 cells after 48 hrs by MTT assay. The assay is classed as cell-based. The note with it: IOSE-144, 48 h.
In assay [3] the test system is MCF7. Briefly: Antiproliferative activity against human MCF7 cells assessed as cell viability at 30 uM after 48 hrs by MTT assay. Format: functional. The conditions noted are these: MCF7, 48 h, read-out: Activity.

The IC50 is the concentration that inhibits the measured activity by half. High values mean a need for much substance, low ones inhibition by little substance. On to `CC(C)(O)CCC[C@@](C)(O)[C@H]1CC[C@]2(C)[C@@H]1[C@H](OC=O)C[C@@H]1[C@@]3(C)CC[C@H](OC=O)C(C)(C)[C@@H]3CC[C@]12C`, for which the IC50 in the assay on MCF7 [1] is 1.1 µM; with A549, 12.5 µM; in the assay on LoVo, 49.5 µM; in assay [2], over 100 µM. Further, the viability at 30 µM in the assay on MCF7 [3] is 10.6%.

Regarding `CC(=O)O[C@@H]1C[C@@H]2[C@@]3(C)CC[C@H](O)C(C)(C)[C@@H]3CC[C@@]2(C)[C@]2(C)CC[C@H]([C@](C)(O)CCCC(C)(C)O)[C@@H]12`, the IC50 with MCF7 [1] was 15.1 µM; in the assay on A549, 10.4 µM; with LoVo, 37.5 µM; in assay [2], over 100 µM. Also, in the assay with MCF7 [3], the viability at 30 µM turned out to be 13.2%.

In the case of `O=c1[nH]cc(F)c(=O)[nH]1` [FLUOROURACIL], the half-maximal inhibitory concentration (IC50) in the assay with MCF7 [1] is 16.2 µM; in the assay on A549 it was 12.8 µM; in the assay with LoVo it was 3.3 µM; in assay [2], 25.6 µM. Also, the viability at 30 µM in the assay on MCF7 [3] worked out at 42.5%.

Consider `CCCC(=O)O[C@@H]1C[C@@H]2[C@@]3(C)CC[C@H](O)C(C)(C)[C@@H]3CC[C@@]2(C)[C@]2(C)CC[C@H]([C@](C)(O)CCCC(C)(C)O)[C@@H]12`, for which the concentration for half-maximal inhibition (IC50) was 32.8 µM in the assay on MCF7 [1], 25.5 µM in the assay on A549, 38.3 µM in the assay on LoVo and over 100 µM in assay [2]. For the same compound, the viability at 30 µM in the assay with MCF7 [3] was 28.5%.

`CCC(=O)O[C@@H]1C[C@@H]2[C@@]3(C)CC[C@H](O)C(C)(C)[C@@H]3CC[C@@]2(C)[C@]2(C)CC[C@H]([C@](C)(O)CCCC(C)(C)O)[C@@H]12`: the half-maximal inhibitory concentration (IC50) is 10.4 µM in the assay with MCF7 [1], 17.7 µM in the assay with A549, 40.3 µM in the assay on LoVo and over 100 µM in assay [2]. Moreover, the viability at 30 µM with MCF7 [3] came to 17.1%.

The values above are taken from ChEMBL document CHEMBL2062480, “Semi-synthesis and anti-tumor evaluation of novel 25-hydroxyprotopanaxadiol derivatives” (Eur J Med Chem, 2012).
